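How tested: cells in 96-well plates exposed to compound for 48 hours at five concentrations. Definition used: TGI = concentration required for complete inhibition of growth.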
Tests used:
Experiment in all cases: growth of human tumour cells (NCI), 48 h
OVCAR-5 ovarian = tested on: OVCAR-5 ovarian
HT29 colon = tested on: HT29 colon
NCI-H460 lung = tested on: NCI-H460 lung
M19-MEL melanoma = tested on: M19-MEL melanoma
RPMI-8226 leukemia = tested on: RPMI-8226 leukemia
SF-268 CNS = tested on: SF-268 CNS
XF 498 CNS = tested on: XF 498 CNS
SK-OV-3 ovarian = tested on: SK-OV-3 ovarian
DMS 114 small cell lung = tested on: DMS 114 small cell lung
KM20L2 colon = tested on: KM20L2 colon
786-0 renal = tested on: 786-0 renal
SF-539 CNS = tested on: SF-539 CNS
HOP-62 NSCLC = tested on: HOP-62 NSCLC
CAKI-1 renal = tested on: CAKI-1 renal
CCRF-CEM leukemia = tested on: CCRF-CEM leukemia
NCI-H23 lung = tested on: NCI-H23 lung
ACHN renal = tested on: ACHN renal
LXFL 529 NSCLC = tested on: LXFL 529 NSCLC
TK-10 renal = tested on: TK-10 renal
HCT-116 colon = tested on: HCT-116 colon
OVCAR-4 ovarian = tested on: OVCAR-4 ovarian
SF-295 CNS = tested on: SF-295 CNS
COLO 205 colon = tested on: COLO 205 colon
RXF 393 renal = tested on: RXF 393 renal
SR leukemia = tested on: SR leukemia
HOP-92 NSCLC = tested on: HOP-92 NSCLC
HOP-18 NSCLC = tested on: HOP-18 NSCLC
DLD-1 colon = tested on: DLD-1 colon
SK-MEL-28 melanoma = tested on: SK-MEL-28 melanoma
HCC-2998 colon = tested on: HCC-2998 colon
DMS 273 small cell lung = tested on: DMS 273 small cell lung
IGROV1 ovarian = tested on: IGROV1 ovarian
SW-620 colon = tested on: SW-620 colon
K-562 leukemia = tested on: K-562 leukemia
LOX IMVI melanoma = tested on: LOX IMVI melanoma
A549 NSCLC = tested on: A549 NSCLC
UO-31 renal = tested on: UO-31 renal
OVCAR-8 ovarian = tested on: OVCAR-8 ovarian
NCI-H522 lung = tested on: NCI-H522 lung
SK-MEL-2 melanoma = tested on: SK-MEL-2 melanoma
HL-60(TB) leukemia = tested on: HL-60(TB) leukemia
SK-MEL-5 melanoma = tested on: SK-MEL-5 melanoma
OVCAR-3 ovarian = tested on: OVCAR-3 ovarian
MALME-3M melanoma = tested on: MALME-3M melanoma
SN12C renal = tested on: SN12C renal
U251 CNS = tested on: U251 CNS
HCT-15 colon = tested on: HCT-15 colon
KM12 colon = tested on: KM12 colon
SNB-78 CNS = tested on: SNB-78 CNS
A498 renal = tested on: A498 renal
SNB-19 CNS = tested on: SNB-19 CNS
NCI-H226 lung = tested on: NCI-H226 lung
MOLT-4 leukemia = tested on: MOLT-4 leukemia
M14 melanoma = tested on: M14 melanoma
UACC-62 melanoma = tested on: UACC-62 melanoma
UACC-257 melanoma = tested on: UACC-257 melanoma
SNB-75 CNS = tested on: SNB-75 CNS
EKVX NSCLC = tested on: EKVX NSCLC
RXF-631 renal = tested on: RXF-631 renal

**Q.** How did the TGI (OVCAR-5 ovarian) turn out when `O=C(/C(=C\c1ccccc1)CN1CCOCC1)c1ccc(Br)cc1` was run?
**A.** 9.14 µM

**Q.** And the TGI (HT29 colon)?
**A.** 4.56 µM

**Q.** What about the TGI (NCI-H460 lung) of the same compound?
**A.** 8.79 µM

**Q.** What about the TGI (M19-MEL melanoma) of the same compound?
**A.** 3.43 µM

**Q.** What about the TGI (RPMI-8226 leukemia) of the same compound?
**A.** 10.7 µM

**Q.** And the TGI (SF-268 CNS)?
**A.** 9.9 µM

**Q.** And the TGI (XF 498 CNS)?
**A.** 9.72 µM

**Q.** What about the TGI (SK-OV-3 ovarian) of the same compound?
**A.** 11.2 µM

**Q.** What about the TGI (DMS 114 small cell lung) of the same compound?
**A.** 4.5 µM

**Q.** And the TGI (KM20L2 colon)?
**A.** 7.12 µM

**Q.** And the TGI (786-0 renal)?
**A.** 3.13 µM

**Q.** And the TGI (SF-539 CNS)?
**A.** 5.9 µM

**Q.** And the TGI (HOP-62 NSCLC)?
**A.** 13.1 µM

**Q.** And the TGI (CAKI-1 renal)?
**A.** 3.95 µM

**Q.** And the TGI (CCRF-CEM leukemia)?
**A.** 11.1 µM

**Q.** And the TGI (NCI-H23 lung)?
**A.** 8.48 µM

**Q.** What about the TGI (ACHN renal) of the same compound?
**A.** 3.42 µM

**Q.** What about the TGI (LXFL 529 NSCLC) of the same compound?
**A.** 4.67 µM

**Q.** What about the TGI (TK-10 renal) of the same compound?
**A.** 12.2 µM

**Q.** What about the TGI (HCT-116 colon) of the same compound?
**A.** 3.2 µM

**Q.** And the TGI (OVCAR-4 ovarian)?
**A.** 8.11 µM

**Q.** What about the TGI (SF-295 CNS) of the same compound?
**A.** 15.6 µM

**Q.** And the TGI (COLO 205 colon)?
**A.** 7.71 µM

**Q.** What about the TGI (RXF 393 renal) of the same compound?
**A.** 5.99 µM

**Q.** And the TGI (SR leukemia)?
**A.** 17.4 µM

**Q.** And the TGI (HOP-92 NSCLC)?
**A.** 10.8 µM

**Q.** And the TGI (HOP-18 NSCLC)?
**A.** 3.85 µM

**Q.** And the TGI (DLD-1 colon)?
**A.** 3.13 µM

**Q.** And the TGI (SK-MEL-28 melanoma)?
**A.** 3.85 µM

**Q.** And the TGI (HCC-2998 colon)?
**A.** 29.6 µM

**Q.** What about the TGI (DMS 273 small cell lung) of the same compound?
**A.** 6.47 µM

**Q.** What about the TGI (IGROV1 ovarian) of the same compound?
**A.** 9.32 µM

**Q.** What about the TGI (SW-620 colon) of the same compound?
**A.** 2.72 µM

**Q.** What about the TGI (K-562 leukemia) of the same compound?
**A.** 15.9 µM

**Q.** What about the TGI (LOX IMVI melanoma) of the same compound?
**A.** 3.22 µM

**Q.** And the TGI (A549 NSCLC)?
**A.** 17 µM

**Q.** And the TGI (UO-31 renal)?
**A.** 3.29 µM

**Q.** And the TGI (OVCAR-8 ovarian)?
**A.** 3.34 µM

**Q.** And the TGI (NCI-H522 lung)?
**A.** 2.59 µM

**Q.** And the TGI (SK-MEL-2 melanoma)?
**A.** 3.74 µM

**Q.** And the TGI (HL-60(TB) leukemia)?
**A.** 4.48 µM

**Q.** And the TGI (SK-MEL-5 melanoma)?
**A.** 4.08 µM

**Q.** What about the TGI (OVCAR-3 ovarian) of the same compound?
**A.** 6.93 µM

**Q.** And the TGI (MALME-3M melanoma)?
**A.** 3.31 µM

**Q.** What about the TGI (SN12C renal) of the same compound?
**A.** 4.35 µM

**Q.** What about the TGI (U251 CNS) of the same compound?
**A.** 6.34 µM

**Q.** What about the TGI (HCT-15 colon) of the same compound?
**A.** 4.22 µM

**Q.** And the TGI (KM12 colon)?
**A.** 3.74 µM

**Q.** And the TGI (SNB-78 CNS)?
**A.** 20.6 µM

**Q.** And the TGI (A498 renal)?
**A.** 12.3 µM

**Q.** What about the TGI (SNB-19 CNS) of the same compound?
**A.** 12.7 µM

**Q.** What about the TGI (NCI-H226 lung) of the same compound?
**A.** 12.7 µM

**Q.** What about the TGI (MOLT-4 leukemia) of the same compound?
**A.** 19 µM

**Q.** What about the TGI (M14 melanoma) of the same compound?
**A.** 3.27 µM

**Q.** And the TGI (UACC-62 melanoma)?
**A.** 2.98 µM

**Q.** What about the TGI (UACC-257 melanoma) of the same compound?
**A.** 8.93 µM

**Q.** And the TGI (SNB-75 CNS)?
**A.** 24.9 µM

**Q.** What about the TGI (EKVX NSCLC) of the same compound?
**A.** 9.47 µM

**Q.** Which results are given for `CCOC(=O)C1C(=O)C(C(=O)OCC)C(c2ccccc2)N(C)C1c1ccccc1` (stereo not drawn)?
**A.** TGI (RXF-631 renal): > 100 µM; TGI (OVCAR-5 ovarian): > 100 µM; TGI (HT29 colon): > 100 µM; TGI (NCI-H460 lung): > 100 µM; TGI (M19-MEL melanoma): > 100 µM; TGI (SF-268 CNS): > 100 µM; TGI (SK-OV-3 ovarian): > 100 µM; TGI (DMS 114 small cell lung): > 100 µM; TGI (KM20L2 colon): > 100 µM; TGI (786-0 renal): > 100 µM; TGI (SF-539 CNS): > 100 µM; TGI (HOP-62 NSCLC): > 100 µM; TGI (CAKI-1 renal): > 100 µM; TGI (CCRF-CEM leukemia): > 100 µM; TGI (NCI-H23 lung): > 100 µM; TGI (ACHN renal): > 100 µM; TGI (LXFL 529 NSCLC): > 100 µM; TGI (TK-10 renal): > 100 µM; TGI (HCT-116 colon): > 100 µM; TGI (OVCAR-4 ovarian): > 100 µM; TGI (SF-295 CNS): > 100 µM; TGI (COLO 205 colon): > 100 µM; TGI (RXF 393 renal): > 100 µM; TGI (SR leukemia): > 100 µM; TGI (HOP-92 NSCLC): > 100 µM; TGI (DLD-1 colon): > 100 µM; TGI (SK-MEL-28 melanoma): > 100 µM; TGI (DMS 273 small cell lung): > 100 µM; TGI (IGROV1 ovarian): > 100 µM; TGI (SW-620 colon): > 100 µM; TGI (K-562 leukemia): > 100 µM; TGI (LOX IMVI melanoma): > 100 µM; TGI (A549 NSCLC): > 100 µM; TGI (UO-31 renal): > 100 µM; TGI (OVCAR-8 ovarian): > 100 µM; TGI (NCI-H522 lung): > 100 µM; TGI (SK-MEL-2 melanoma): > 100 µM; TGI (HL-60(TB) leukemia): > 100 µM; TGI (SK-MEL-5 melanoma): > 100 µM; TGI (OVCAR-3 ovarian): > 100 µM; TGI (MALME-3M melanoma): > 100 µM; TGI (SN12C renal): > 100 µM; TGI (U251 CNS): > 100 µM; TGI (HCT-15 colon): > 100 µM; TGI (KM12 colon): > 100 µM; TGI (SNB-78 CNS): > 100 µM; TGI (A498 renal): > 100 µM; TGI (SNB-19 CNS): > 100 µM; TGI (NCI-H226 lung): > 100 µM; TGI (MOLT-4 leukemia): > 100 µM; TGI (M14 melanoma): > 100 µM; TGI (UACC-62 melanoma): > 100 µM; TGI (UACC-257 melanoma): > 100 µM; TGI (SNB-75 CNS): > 100 µM; TGI (EKVX NSCLC): > 100 µM
